According to patent US20240382495A1, “COMBINATIONS OF COPANLISIB WITH ANTI-PD-1 ANTIBODY” (BAYER PHARMA AKTIENGESELLSCHAFT, priority 2023, published 2024):
Where a name gives a salt, the structure may show the parent alone.

Legend:
[1] = tested on: regulatory T cells (Treg); assay: Analysis of Treg and CD8+ T cells in tumor, spleen and thymus of A20 model; format: in vivo, mouse
Protocol: Sampling procedures: organ and tumor tissues were quickly removed and weighted 3h post the final dose for FACS, IHC (FFPE), and RNA/pretein expression analysis.
The anti-tumor activity of Compound A and Compound B was assessed firstly in an immune-checkpoint blocker resistant DLBCL syngeneic A20 xenograft mouse model as single agent and in combination. A20 cells were inoculated subcutaneously at the right flank of female BALB/c mice for tumor development. The treatment was started when the average tumor size reached about 116 mm^3. Mice were allocated randomly into experimental groups according to their tumor sizes and being treated from day 12 after tumor cell inoculation. Cpd A was dosed at 14 mg/kg and Cpd B at 200 μg/mouse intravenously with the schedule indicated in FIG. 1 A. Treatment groups were: control antibody (ctrl Ab), vehicle control (vehicle), compound A monotherapy (Cpd. A), Cpd. B monotherapy, 3 combination groups with different dosing schedules. Body weights and tumor size were measured three times per week. Tumor growth curve (FIG. 1B), tumor weight at the end of treatment (FIG. 1C) and tumor response (FIG. 1D) were used as anti-tumor activity endpoints. The tolerability was assessed by body weight change. […]

[2] = tested on: CT26 colorectal cancer; assay: Anti-tumor efficacy in syngeneic CT26 colorectal cancer mouse model; format: in vivo; settings: CT26 (KRASmut, non-MSIhigh) model, monotherapy
Protocol: (§1) Experimental Methods A20 diffuse large B cell lymphoma and CT26 colorectal cancer cells were maintained in vitro in cell cultural medium supplemented with serum (according to the instructions for each corresponding cell lines) at 37° C. in an atmosphere of 5% CO2 in air. The tumor cells were routinely subcultured twice weekly. The cells in an exponential growth phase were harvested and counted for tumor inoculation. To investigate anti-tumor efficacy and mechanisms of action in vivo, each mouse was inoculated subcutaneously at the right lower flank region with tumor cells (1×10^5-2×10^6 depending on the cell lines) in 0.1 ml of PBS with or without metrigel for tumor development. Before commencement of treatment, all animals were weighed and the tumor volumes were measured using a caliper. […]
(§2) Tumor volumes were measured 2-3 times weekly in two dimensions using a caliper, and the volume was expressed in mm^3 using the formula: V=0.5 a x b2 where a and b are the long and short diameters of the tumor, respectively. Tumor weight was measured at study termination. […]
Therefore, the anti-tumor activity of Compound A and Compound B was assessed in the mouse syngeneic CT26 (KRASmut, non-MSIhig^h) colorectal cancer xenograft model as single agent and in combination. […]

[3] = tested on: A20 diffuse large B cell lymphoma; assay: Anti-tumor efficacy in DLBCL syngeneic A20 mouse model; format: in vivo; settings: monotherapy; Cpd A 14 mg/kg, Cpd B 200 μg/mouse, intravenously; vs vehicle control group
Protocol: as §1, §2
The anti-tumor activity of Compound A and Compound B was assessed firstly in an immune-checkpoint blocker resistant DLBCL syngeneic A20 xenograft mouse model as single agent and in combination. […] Body weights and tumor size were measured three times per week. […] The tolerability was assessed by body weight change. […]

## COc1c(OCCCN2CCOCC2)ccc2c1N=C(NC(=O)c1cnc(N)nc1)N1CCN=C21 [Cpd A, 2-amino-N-[7-methoxy-8-(3-morpholin-4-ylpropoxy)-2,3-dihydroimid-azo[1,2-c]quinazolin-5-yl]pyrimidine-5-carboxamide dihydrochloride]
[1]; A20 model, thymus and spleen
  effect on Treg in thymus and spleen: minimal or no effects
[1]; A20 tumors, Treg among CD4+ T cells
  effect on Treg population in tumors: specifically reduce the Treg population in tumors
[2]
  TGI: 71%
[3]
  relative tumor growth inhibition (TGI %): 78%
